The experiment has as its system Monocotyledonous and dicotyledonous test plants. The experiment in a line: Herbicidal action, application pre-emergence (Example B1). The class given is in vivo. On the set-up: key: 10=total damage to plant; 0=no damage to plant. Particulars: 1000 g/ha, scale 10=total damage to plant, 0=no damage to plant, evaluated after 9 or 13 days. As for the experimental part:
Monocotyledonous and dicotyledonous test plants were sown in sterilised standard soil in seed trays each having 96 cells. After one day (pre-emergence) or after 8 to 9 days cultivation (post-emergence) under controlled conditions in a climatic chamber (cultivation at 17/23° C.; 13 hours light; 50-60% humidity; after application at 19/24° C.), the plants were treated with an aqueous spray solution of 1000 mg/l of the active ingredient used (including 10% DMSO as solvent). The plants were grown on in the climatic chamber until the test was evaluated (10=total damage to plant, 0=no damage to plant) after 9 or 13 days.

As to `CN=S(=O)(Cc1c(F)cccc1F)C1=NOC(C)(C)C1` (stereo not shown) [1.08, 3-{2,6-difluoro-phenylmethane(N-methyl)sulfoximinyl)-5,5-dimethyl-4,5-dihydroisoxazole], the “Herbicidal action on Agrostis (damage rating)” value (“Herbicidal action on Agrostis” below) worked out at 10, the “Herbicidal action on Digitaria (damage rating)” value (“Herbicidal action on Digitaria” below) is given as 7, the “Herbicidal action on Poa (damage rating)” value turned out to be 10 and the “Herbicidal action on Setaria (damage rating)” value (“Herbicidal action on Setaria” for short) is 9.
As for `CC(C)(C)OC(=O)N=S(=O)(Cc1c(F)cccc1F)C1=NOC(C)(C)C1` (stereo not shown) [1.06], the “Herbicidal action on Agrostis” value was 9, the “Herbicidal action on Digitaria” value stood at 7, the “Herbicidal action on Poa (damage rating)” value came to 6 and the “Herbicidal action on Setaria” value stood at 10.
The corresponding values for `CC(c1c(F)cccc1F)S(=O)(=NC(=O)C(F)(F)F)C1=NOC(C)(C)C1` (stereo not shown) [1.20] are 9, 8, 4 and 8.
On to `CC1(C)CC(S(=N)(=O)Cc2cccc(F)c2F)=NO1` (stereo not shown) [1.29], for which the “Herbicidal action on Agrostis” value came out at 10, the “Herbicidal action on Digitaria” value was found to be 8, the “Herbicidal action on Poa (damage rating)” value is listed as 10 and the “Herbicidal action on Setaria” value was determined as 6.
`CC1(C)CC(S(=N)(=O)C(F)(F)c2c(F)cccc2F)=NO1` (stereo not shown) [1.22]: the “Herbicidal action on Agrostis” value is 10, the “Herbicidal action on Digitaria” value stood at 10, the “Herbicidal action on Poa (damage rating)” value was found to be 10 and the “Herbicidal action on Setaria” value turned out to be 10.
Consider `CC1(C)CC(S(=O)(Cc2c(F)cccc2F)=NC(=O)c2ccccc2)=NO1` (stereo not shown) [1.36], for which the “Herbicidal action on Agrostis” value was 10, the “Herbicidal action on Digitaria” value came to 5, the “Herbicidal action on Poa (damage rating)” value worked out at 0 and the “Herbicidal action on Setaria” value was found to be 7.
In the case of `Cn1nc(C(F)(F)F)c(CS(=N)(=O)C2=NOC(C)(C)C2)c1Cl` (stereo not shown) [2.01], the “Herbicidal action on Agrostis” value was found to be 10, the “Herbicidal action on Digitaria” value was 10, the “Herbicidal action on Poa (damage rating)” value is 10 and the “Herbicidal action on Setaria” value was found to be 10.
For `CC1(C)CC(S(=N)(=O)C(Cl)c2c(F)cccc2F)=NO1` (mixture of isomers) [1.02], the “Herbicidal action on Agrostis” value was 10, the “Herbicidal action on Digitaria” value was 10, the “Herbicidal action on Poa (damage rating)” value is recorded as 10 and the “Herbicidal action on Setaria” value was found to be 10.
Turning to `CC1(C)CC(S(=N)(=O)Cc2ccccc2OC(F)(F)F)=NO1` (stereo not shown) [1.24], the “Herbicidal action on Agrostis” value is given as 10, the “Herbicidal action on Digitaria” value turned out to be 9, the “Herbicidal action on Poa (damage rating)” value was determined as 0 and the “Herbicidal action on Setaria” value was found to be 8.
Regarding `Cc1ccc(F)c(CS(=N)(=O)C2=NOC(C)(C)C2)c1F` (stereo not shown) [1.28], the “Herbicidal action on Agrostis” value stood at 10, the “Herbicidal action on Digitaria” value is 9, the “Herbicidal action on Poa (damage rating)” value stood at 10 and the “Herbicidal action on Setaria” value came out at 8.
Regarding `Cc1ccccc1CS(=N)(=O)C1=NOC(C)(C)C1` (stereo not shown) [1.27], the “Herbicidal action on Agrostis” value came to 5, the “Herbicidal action on Digitaria” value came to 8, the “Herbicidal action on Poa (damage rating)” value amounted to 0 and the “Herbicidal action on Setaria” value stood at 5.
`CC1(C)CC(S(=O)(=NC(=O)c2ccccc2)C(F)c2c(F)cccc2F)=NO1` (stereo not shown) [1.35]: the “Herbicidal action on Agrostis” value is on record as 10, the “Herbicidal action on Digitaria” value is on record as 8, the “Herbicidal action on Poa (damage rating)” value amounted to 10 and the “Herbicidal action on Setaria” value is listed as 8.
For the compound `CC(c1c(F)cccc1F)S(=O)(=NC(=O)C(F)(F)F)C1=NOC(C)(C)C1` (stereo not shown) [1.19], the “Herbicidal action on Agrostis” value is reported as 10, the “Herbicidal action on Digitaria” value was 9, the “Herbicidal action on Poa (damage rating)” value is on record as 6 and the “Herbicidal action on Setaria” value was determined as 9.
